The text below walks through data of patent US6884907B2, “Hydroxamic acids and acyl hydroxamines as naaladase inhibitors” (Guilford Pharmaceuticals Inc., priority 2001, dated 2005).

The target of one test is T1, NAALADase (Homo sapiens, UniProt Q04609).
T1 construct: from tissue; host or cells: unspecified tissue
As to the kind of experiment: In vitro inhibition of NAALADase activity. The conditions noted are these: average IC50 values. It is filed as biochemical. As for the experimental part: Various compounds of the invention were tested for in vitro inhibition of NAALADase activity. The average IC50 values of the tested compounds are provided bewlow in Table II.
Protocol for Assaying In Vitro Inhibition of NAALADase Activity
The following were combined in assay tubes: 100 μL of 10 mM CoCl2, 250 μL of 200 mM Tris chloride, 100 μL tissue, 100 μL of 10 mM NAALADase inhibitor in Bakers H2O, and Bakers H2O to make a total volume of 950 μL. Each assay tube was then incubated for 10 minutes in a 37° C. water bath. 50 μL of 3-H-NAAG was then added to each assay tube and incubated for an additional 15 minutes in at 37° C. water bath. The assay was stopped by adding 1.0 ml of 0.1 M sodium phosphate.
Glutamate released by the action of the NAALADase enzyme was separated from the assay solution using an anion exchange resin. The resin was equilibrated to 25° C., 2.0 ml of the resin was added to a Pasteur pipette pre-loaded with a single glass bead, and each column was washed twice with distilled H2O. A column was placed over a scintillation vial and 200 μL of an assay sample was loaded onto the column. After draining, glutamate was eluted using two 1.0 ml washes of 1 M formic acid. After addition of 10 ml of scintillation cocktail, each sample was counted for 2 minutes on a scintillation counter.

Test [1] concerns STZ-diabetic rats. As to the kind of experiment: Reversal of diabetic neuropathy in STZ model, delayed dosing: thermal hyperalgesia. It is filed as in vivo. The conditions noted are these: for neuropathic hyperalgesia (withdrawal latency): daily p.o., treatment started 5 weeks post STZ, within two weeks of treatment, FIG. 20. On the procedure:
(§1) Rats (200-225 grams) were injected with STZ (70 mg/kg) into the tail vein. Diabetes (>350 mg/dl) was confirmed in all rats, 4 weeks after STZ administration. Rats were left untreated until 35-49 days after STZ. Compound D (1, 3, or 10 mg/kg), Compound E (10 mg/kg), or vehicle were dosed daily p.o. following confirmation of hyperalgesia and/or nerve conduction velocity deficits. In separate experiments, onset of treatment was delayed until 60 to 90 days after STZ administration. Nerve conduction velocity or withdrawal response to thermal stimulation of hind paws was measured at intervals, usually bi-weekly for thermal response and monthly for nerve conduction velocity.
Animals were acclimated to the apparatus for at least 5 min. An infrared source was placed under below the plantar surface of the rat hind-paw. The intensity of the source was adjusted so that latency for normal rats was about 10 secs. Animals were tested for thermal response latency according to the method of Hargreaves et al (Pain 77-88, 1988). Each animal was tested 8 times (4 each hind limb) and the latency of response recorded automatically to nearest 0.1 sec. An average of the last 4 measurements for each paw was calculated (8 total measurements) and noted for each rat.

Test [2] relates to STZ-diabetic rats. As to the kind of experiment: Reversal of diabetic neuropathy in STZ model, delayed dosing: nerve conduction velocity. The conditions noted are these: for motor nerve conduction velocity: daily p.o., within 8 weeks of dosing, persisted through 12 weeks, FIG. 21. It is filed as in vivo. On the procedure:
as §1
Sensory and motor nerve conduction velocities were evaluated using the method of De Koning and Gispen (Peptides 8: 415-422, 1987). Electrophysiological evaluation was carried out within one hour of dosing. Animals were anesthetized with isoflurane and stimulating needle electrodes were inserted close to the sciatic nerve at the sciatic notch and the tibial nerve near the ankle. Recording electrodes were placed over the foot muscles. Stimuli were applied and responses recorded. Motor and sensory nerve conduction velocities were calculated by measuring the distance between the sciatic notch and ankle sites, and the latency between the M-wave and the H-reflex.

Test [3] concerns STZ-induced diabetic rats. As to the kind of experiment: Neuropathic pain in STZ model (thermal nociception, Hargreaves apparatus). It is filed as in vivo, Male Sprague-Dawley rats. The conditions noted are these: 10 mg/kg i.p. daily, treatment started 45 days post-STZ, FIGS. 7A and 7B. On the procedure:
Male Sprague-Dawley rats (200-225 g) were rendered diabetic by intravenous administration of streptozotocin (“STZ”, 70 mg/kg in phosphate buffered saline). Diabetic animals were divided into five groups: one group receiving Compound A (10 mg/kg or 1 mg/kg), Compound D (10 mg/kg or 1 mg/kg) or vehicle. Another group of animals (non-STZ treated) served as non-diabetic controls. Drug/vehicle treatment was started in diabetic animals 45 days post-STZ administration. STZ-induced diabetic rats were tested for sensitivity to a heat source as soon as blood glucose levels rose to 320 mg/dl or above (30 days post STZ). The rats were then acclimated to a Hargreaves apparatus and thermal nociception was monitored using an infrared heat source directed into the dorsal surface of the hindpaw, and the time taken for the animal to remove its paw noted to the nearest 0.1 seconds (see Hargreaves et al., supra, for detailed experimental method). The intensity of the beam source was adjusted such that the mean latency for control animals (non-STZ treated) was approximately 10 seconds. Each animal was tested 8 times and the mean difference score (between mean non-diabetic control latency and mean diabetic latency) are graphically presented in FIGS. 7A and 7B.

The test system of the next test is BB/W diabetic rats. As to the kind of experiment: Progression of neuropathic pain and nerve conduction deficits in BB/W model. It counts as in vivo, Male BB/W rats. The text has this: Male BB/W rats (BRI, Mass) spontaneously develop a cell mediated autoimmune destruction of pancreatic B cells, resulting in onset of insulin-dependent (Type I) diabetes (Guberski 1994). […] This renders them valuable for experimental trials of new compounds for future treatments of this major disorder. In the present study, Compound D and Compound A were examined for their ability to alter the progression of diabetic neuropathy. The rats received daily injection of Compound D or Compound A (10 mg/kg i.p.) or vehicle, starting at the onset of diabetes (hyperglycemia) and up to 6 months thereafter. Another group of non-diabetic rats also receiving vehicle were tested. All animals were continuously monitored for body weight, urine volume, blood sugar and glycated haemoglobin. In the first month of the study, all animals were tested for thermal nociception in a Hargreaves apparatus, weekly. After the first month this was done biweekly and then monthly. The testing consists of directing an infrared heat source onto the dorsal surface of the rat hindpaw and noting the time taken for the animal to remove its paw (see Hargreaves et al., supra, for a description of the experimental method). Each animal was tested 8 times and the mean withdrawal latency noted.
Nerve conduction velocity was also measured every two weeks through the first eight weeks of treatment and every month thereafter through to the six months of treatment (see De Koning et al., Peptides, Vol. 8, No. 3, pp. 415-22 (1987) for a description of the experimental method). […] This was apparent starting at 8 weeks of treatment and persisted to a similar degree through to the six month termination point of the study.

The test system of another test is STZ-diabetic animals. Put plainly: Diabetic neuropathy in STZ model (nerve conduction velocity). The conditions noted are these: either dose (1 or 10 mg/kg), versus diabetic controls, FIGS. 10A and 10B. It is filed as in vivo, rats. As for the experimental part:
Motor and sensory nerve conduction velocity was also measured in STZ-diabetic animals after 4, 8 and 12 weeks of treatment (see De Koning et al., supra, for a description of the experimental method). Briefly, stimulating needle electrodes were inserted close to the sciatic and tibial nerves with recording electrodes being placed subcutaneously over the distal foot muscles, in anesthetized rats.

T1 sequence (Q04609 whole entry): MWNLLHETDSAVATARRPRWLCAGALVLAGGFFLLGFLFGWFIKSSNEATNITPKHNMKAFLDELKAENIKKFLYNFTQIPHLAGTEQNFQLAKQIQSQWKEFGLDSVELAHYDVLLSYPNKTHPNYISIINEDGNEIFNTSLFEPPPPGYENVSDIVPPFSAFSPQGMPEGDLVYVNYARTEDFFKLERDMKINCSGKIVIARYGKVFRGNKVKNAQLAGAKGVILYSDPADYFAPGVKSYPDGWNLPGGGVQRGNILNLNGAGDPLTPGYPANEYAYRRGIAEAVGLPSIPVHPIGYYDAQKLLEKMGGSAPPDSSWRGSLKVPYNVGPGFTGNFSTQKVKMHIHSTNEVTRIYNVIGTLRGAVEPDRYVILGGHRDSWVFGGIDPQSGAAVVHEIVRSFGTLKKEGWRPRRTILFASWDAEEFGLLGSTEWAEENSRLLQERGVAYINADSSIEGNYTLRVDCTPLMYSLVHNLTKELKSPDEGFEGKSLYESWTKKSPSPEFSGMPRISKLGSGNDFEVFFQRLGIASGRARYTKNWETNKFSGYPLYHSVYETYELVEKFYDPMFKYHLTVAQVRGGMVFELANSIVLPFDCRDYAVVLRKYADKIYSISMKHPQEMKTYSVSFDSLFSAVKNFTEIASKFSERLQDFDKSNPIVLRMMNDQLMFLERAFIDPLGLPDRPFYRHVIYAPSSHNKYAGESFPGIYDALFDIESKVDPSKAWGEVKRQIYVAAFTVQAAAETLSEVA

`O=CN(O)CCC(Cc1cccc(C(=O)O)c1)C(=O)O` (stereo not drawn) [Compound 78]: on NAALADase, the IC50 (as a rule, the concentration that inhibits the measured activity by half) is 10.3 µM. `O=C(O)CCC(=O)NO` [Compound 84] yielded a half-inhibitory concentration (IC50) against NAALADase of 40 µM. The molecule `CC(C)(C)c1cc(CC(CCC(=O)NO)C(=O)O)cc(C(=O)O)c1` (stereo not drawn) [Compound 2, 3-tert-Butyl-5-(2-carboxy-4-hydroxycarbamoyl-butyl)-benzoic acid] had an IC50 against NAALADase of 0.06 µM. As to `O=C(O)c1cccc(CC(CCCS)C(=O)O)c1` (stereo not drawn) [Compound E, 3-carboxy-alpha-(3-mercaptopropyl)benzenepropanoic acid], the “neuropathic hyperalgesia (withdrawal latency)” value in the test with STZ-diabetic rats [1] is “reversed towards normal”. In addition, in the test with STZ-diabetic rats [2], the “motor nerve conduction velocity” value is “reversed the motor nerve conduction velocity towards normal”.

Regarding `O=C(CSCCCC(Cc1cccc(C(=O)O)c1)C(=O)O)NO` (stereo not drawn) [Compound 17, 3-(2-Carboxy-5-hydroxycarbamoylmethyl-sulfanylpentyl)-benzoic acid], on NAALADase, half-maximal inhibition (IC50) required 0.4 µM.

`O=C(O)CNC(=O)c1cc(C(=O)O)cc(C(=O)NO)c1` [Compound 81] had an IC50 on NAALADase of 9 µM. Molecule `O=C(O)CCC(CCC(=O)NO)C(=O)O` (stereo not drawn) [Compound 83] registered a 50% inhibitory concentration (IC50) against NAALADase of 2 µM. `O=C(CSCCCC(Cc1ccc(C(=O)O)c(Br)c1)C(=O)O)NO` (stereo not drawn) [Compound 65, 2-Bromo-4-(2-carboxy-5-hydroxycarbamoylmethyl-sulfanylpentyl)-benzoic acid]: half-maximal inhibition against NAALADase (IC50) required 3 µM.

At NAALADase, `O=CN(O)CCCC(Cc1cccc(C(=O)O)c1)C(=O)O` (stereo not drawn) [Compound 77] displayed an IC50 of 2.22 µM.

At NAALADase, `O=C(CCC(Cc1ccc(C(=O)O)cc1)C(=O)O)NO` (stereo not drawn) [Compound 75, 4-[2-carboxy-5-(hydroxyamino)-5-oxopentyl]benzoic acid] registered an IC50 of 0.03 µM. Same read-out and setting: under `O=C(CCC(Cc1ccccc1C(=O)O)C(=O)O)NO` (stereo not drawn) [Compound 73] stands 2 µM; under `O=C(Cc1ccc(CC(Cc2cccc(C(=O)O)c2)C(=O)O)cc1)NO` (stereo not drawn) [Compound 90], 25.8 µM. In the case of `CS(=O)(=O)c1ccc(CC(CCC(=O)NO)C(=O)O)cc1` (stereo not drawn) [Compound 74], the IC50 against NAALADase turned out to be 3 µM. On to `O=C(O)CCC(C(=O)O)C(=O)NO` (stereo not drawn) [Compound 86], for which the IC50 against NAALADase came to 4 µM. Still for that read-out and setting: under `O=CN(O)CCCCC(Cc1cccc(C(=O)O)c1)C(=O)O` (stereo not drawn) [Compound 76] stands 100 µM; under `COC(=O)c1cccc(CC(C(=O)O)C(=O)NO)c1` (stereo not drawn) [Compound 10, 3-(2-Carboxy-2-hydroxycarbamoyl-ethyl)-benzoic acid methyl ester], 100 µM; under `O=C(O)CCC(Cc1cccc(C(=O)NO)c1)C(=O)O` (stereo not drawn) [Compound 94], 40 µM.

The molecule `CC(C)(C)c1cc(CC(CCCC(=O)NO)C(=O)O)cc(C(=O)O)c1` (stereo not drawn) [Compound 71] displayed a concentration for half-maximal inhibition (IC50) at NAALADase of 0.5 µM. For the molecule `CCC(SCCCC(Cc1cccc(C(=O)O)c1)C(=O)O)C(=O)NO` (stereo not drawn) [Compound 19, 3-[2-Carboxy-5-(1-hydroxycarbamoyl-propylsulfanyl)-pentyl]-benzoic acid], on NAALADase, the IC50 turned out to be 4 µM.

Molecule `O=C(O)CCC(CCCC(=O)NO)C(=O)O` (stereo not drawn) [Compound 85] showed an IC50 against NAALADase of 0.9 µM. For `O=CN(O)CCC(Oc1cccc(C(=O)O)c1)C(=O)O` (stereo not drawn) [Compound 79], the midpoint of inhibition against NAALADase, the IC50, lay at 65.5 µM. On NAALADase, `O=C(CCC(Cc1cccc(-c2cccc(C(=O)O)c2)c1)C(=O)O)NO` (stereo not drawn) [Compound 72] returned an IC50 of 0.05 µM. For `O=C(O)CCC(CCS)C(=O)O` (stereo not drawn) [Compound D, 2-(2-sulfanylethyl)pentanedioic acid], the “hyperalgesic response (withdrawal latency difference score)” value in test [3] is on record as “completely reversed”. For the same molecule, the nerve conduction velocity entry in the test on BB/W diabetic rats (10 mg/kg daily, versus diabetic vehicle controls, from 8 weeks to six months, FIG. 12) is given as “significantly less severe nerve conduction deficits”. In the test with BB/W diabetic rats (10 mg/kg i.p. daily, versus diabetic vehicle-treated rats, from 4 weeks through six months of treatment, FIG. 11), the withdrawal latency result was “longer withdrawal latencies”. In addition, in the test with STZ-diabetic animals, the “motor and sensory nerve conduction velocities” value was “increased both motor and sensory nerve conduction velocities”. The “neuropathic hyperalgesia (withdrawal latency)” value with STZ-diabetic rats [1] was “reversed towards normal”. Further, the neuropathic pain abnormalities entry with STZ-diabetic rats [1] (lower doses 1 and 3 mg/kg, treatment initiated 7 weeks after STZ, FIG. 23) is “Significant reduction in pain abnormalities”. Further, the “motor nerve conduction velocity” value with STZ-diabetic rats [2] was “reversed the motor nerve conduction velocity towards normal”. In addition, the motor nerve conduction entry in the test with STZ-diabetic rats [2] (lower doses 1 and 3 mg/kg, treatment from 7 weeks post STZ, 8 weeks after dosing) is on record as “remained unimproved”. In addition, the sensory nerve conduction result with STZ-diabetic rats [2] (lower doses 1 and 3 mg/kg, treatment from 7 weeks post STZ, within 4 weeks of treatment) is on record as “significantly improved towards normal”. Besides, the “sensory and motor nerve conduction velocity deficits” value with STZ-diabetic rats [2] (untreated until 60 days after STZ, external CRO, FIGS. 26 and 27) is listed as “Partial reversal of both deficits”.
